Experimental data: patent US8710043B2, “TRPM8 antagonists and their use in treatments” (Amgen Inc., priority 2011, dated 2014)

The molecules below were run against T1, human TRPM8 (Homo sapiens, UniProt Q7Z2W7) (assay: Luminescence readout assay for measuring intracellular calcium, icilin activation). Conditions: CHO cells expressing human TRPM8, aequorin luminescence, 1 μM icilin activation; read-out: hTRPM8 IC50.
T1 construct: expressed in transfected cells; host or cells: Chinese hamster ovary (CHO) cells, T-REx tetracycline-inducible system, co-transfected with aequorin
T1 sequence (Q7Z2W7 whole entry): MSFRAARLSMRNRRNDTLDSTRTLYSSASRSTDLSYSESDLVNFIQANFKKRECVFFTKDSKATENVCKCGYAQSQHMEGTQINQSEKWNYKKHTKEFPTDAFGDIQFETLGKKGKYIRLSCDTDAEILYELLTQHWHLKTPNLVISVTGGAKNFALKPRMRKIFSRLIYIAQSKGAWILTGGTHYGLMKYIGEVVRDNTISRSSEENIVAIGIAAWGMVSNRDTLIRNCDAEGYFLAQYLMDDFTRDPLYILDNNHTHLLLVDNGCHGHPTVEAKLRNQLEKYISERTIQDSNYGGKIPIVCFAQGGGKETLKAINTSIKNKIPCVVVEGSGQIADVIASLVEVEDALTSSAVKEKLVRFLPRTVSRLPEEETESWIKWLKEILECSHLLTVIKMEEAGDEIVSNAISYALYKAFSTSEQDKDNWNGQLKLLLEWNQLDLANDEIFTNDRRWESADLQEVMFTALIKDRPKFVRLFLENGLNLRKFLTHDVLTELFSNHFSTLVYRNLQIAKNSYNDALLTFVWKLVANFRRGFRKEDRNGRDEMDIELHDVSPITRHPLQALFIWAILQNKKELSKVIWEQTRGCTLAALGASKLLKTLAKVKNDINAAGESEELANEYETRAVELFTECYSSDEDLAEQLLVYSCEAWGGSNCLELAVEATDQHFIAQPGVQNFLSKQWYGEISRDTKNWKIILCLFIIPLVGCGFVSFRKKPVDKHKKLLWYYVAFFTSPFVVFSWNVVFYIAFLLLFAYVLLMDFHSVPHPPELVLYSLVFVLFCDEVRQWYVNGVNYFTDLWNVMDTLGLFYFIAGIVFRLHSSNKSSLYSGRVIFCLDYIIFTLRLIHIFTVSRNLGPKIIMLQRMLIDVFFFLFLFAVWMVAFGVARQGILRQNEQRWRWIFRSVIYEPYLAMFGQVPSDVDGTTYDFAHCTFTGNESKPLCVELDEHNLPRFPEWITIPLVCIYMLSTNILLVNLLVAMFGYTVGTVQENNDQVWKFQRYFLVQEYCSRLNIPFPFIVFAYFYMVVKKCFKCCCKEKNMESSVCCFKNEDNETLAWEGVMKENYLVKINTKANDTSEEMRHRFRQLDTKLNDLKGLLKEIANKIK
Assay type: cell-based
How it was run: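 The read-out was luminescence reporting intracellular calcium, recorded by a CCD-based luminometer. Compounds were preincubated for 2.5 min before agonist challenge with 1 μM icilin. Human TRPM8 was expressed in a stable T-REx CHO line, induced with 0.5 μg/mL tetracycline the day before.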

Row | Structure (SMILES) | IC50
1 | Cc1nc2cc(C(=O)N[C@@H](c3ccc(C(F)(F)F)cc3)c3ncccc3F)ccc2[nH]1 [Example 397, (S)-N-((3-fluoropyridin-2-yl)(4-(trifluoromethyl)phenyl)methyl)-2-methyl-1H-benzo[d]imidazole-5-carboxamide] | 10.3 nM
2 | N#Cc1ccc(C(=O)N[C@@H](c2ccc(C(F)(F)F)cc2)c2ncccc2F)cc1 [Example 167, (S)-4-cyano-N-((3-fluoropyridin-2-yl)(4-(trifluoromethyl)phenyl)methyl)benzamide] | 21.5 nM
3 | O=C(N[C@@H](c1ccc(C(F)(F)F)cc1)c1ncccc1C(F)(F)F)c1ccc2cccnc2n1 [Example 128, (S)-N-((4-(trifluoromethyl)phenyl)(3-(trifluoromethyl)pyridin-2-yl)methyl)-1,8-naphthyridine-2-carboxamide 2,2,2-trifluoroacetate] | 125 nM
4 | O=C(N[C@@H](c1ccc(C(F)(F)F)cc1)c1ncccc1C(F)(F)F)c1ccoc1 [Example 199, (S)-N-((4-(trifluoromethyl)phenyl)(3-(trifluoromethyl)pyridin-2-yl)methyl)furan-3-carboxamide] | 77.6 nM
5 | O=C(N[C@@H](c1ccc(C(F)(F)F)cc1)c1ncccc1C(F)(F)F)c1cncnc1O [Example 61, (S)-4-hydroxy-N-((4-(trifluoromethyl)phenyl)(3-(trifluoromethyl)pyridin-2-yl)methyl)pyrimidine-5-carboxamide] | 312 nM
6 | O=C(N[C@@H](c1ccc(Cl)cc1)c1ncccc1C(F)(F)F)c1ccc2cccnc2c1 [Example 6, (S)-N-((4-chlorophenyl)(3-(trifluoromethyl)pyridin-2-yl)methyl)quinoline-7-carboxamide] | 73.9 nM
7 | N#Cc1ccc(C(=O)N[C@@H](c2ccc(C(F)(F)F)cc2)c2ncccc2F)cc1 (stereo in doubt) [Example 200, 4-cyano-N-((3-fluoropyridin-2-yl)(4-(trifluoromethyl)phenyl)methyl)benzamide] | 49.3 nM
8 | O=C(N[C@@H](c1ccc(C(F)(F)F)cc1)c1ncccc1F)c1ccc(=O)[nH]n1 [Example 317, (S)-N-((3-fluoropyridin-2-yl)(4-(trifluoromethyl)phenyl)methyl)-6-oxo-1,6-dihydropyridazine-3-carboxamide] | 38.9 nM
9 | O=C1CCCC(C(=O)N[C@@H](c2ccc(C(F)(F)F)cc2)c2ncccc2C(F)(F)F)C1 (stereo partly drawn) [Example 223, 3-oxo-N-((S)-(4-(trifluoromethyl)phenyl)(3-(trifluoromethyl)pyridin-2-yl)methyl)cyclohexanecarboxamide] | 599 nM
10 | COc1ncc(C(=O)N[C@@H](c2ccc(C(F)(F)F)cc2)c2ncccc2F)cn1 [Example 264, (S)—N-((3-Fluoropyridin-2-yl)(4-(trifluoromethyl)phenyl)methyl)-2-methoxypyrimidine-5-carboxamide] | 253 nM
11 | CO[C@@](C(=O)N[C@@H](c1ccc(C(F)(F)F)cc1)c1ncccc1C(F)(F)F)(c1ccccc1)C(F)(F)F [Example 237, 3,3,3-trifluoro-2-methoxy-2-phenyl-N-((S)-(4-(trifluoromethyl)phenyl)(3-(trifluoromethyl)pyridin-2-yl)methyl)propanamide] | 733 nM
12 | CC(O)c1ccc([C@H](NC(=O)c2ccc3cccnc3c2)c2ncccc2C(F)(F)F)cc1 (stereo partly drawn) [Example 26, N-((1S)-(4-(1-hydroxyethyl)phenyl)(3-(trifluoromethyl)pyridin-2-yl)methyl)quinoline-7-carboxamide] | 3290 nM
13 | Cc1cncc(C(=O)N[C@@H](c2ccc(C(F)(F)F)cc2)c2ncccc2C(F)(F)F)c1 [Example 182, (S)-5-methyl-N-((4-(trifluoromethyl)phenyl)(3-(trifluoromethyl)pyridin-2-yl)methyl)nicotinamide 2,2,2-trifluoroacetate] | 41.8 nM
14 | O=C(N[C@@H](c1ccc(C(F)(F)F)cc1)c1ncccc1C(F)(F)F)c1cc[nH]c(=O)c1 [Example 44, (S)-2-hydroxy-N-((4-(trifluoromethyl)phenyl)(3-(trifluoromethyl)pyridin-2-yl)methyl)isonicotinamide] | 229 nM
